According to patent publication US20060128773A1, “Wood preservatives and waterproofing compositions and processes” (priority 2004, published 2006):

What was measured:
[1] = Leaching study of treated wood test blocks into water (Example 2); format: physicochemical
Description: Wood test blocks prepared in accordance with Example 1, were subjected to a leaching study.
In this leaching study the following procedure was observed. • 1. The wood test block was placed in 500 ml plastic containers with screw caps. • 2. Water was added to the container to over flowing and the container was sealed. • 3. The containers were stored at room temperature. • 4.

[2] = Leaching study of treated wood test blocks into water (Example 4); format: physicochemical
Description: In this example test blocks were prepared in accordance with the procedure of Example 1 and subjected a leaching study using the following procedure. • 1. The wood test blocks were placed in 500 ml plastic containers with screw caps. • 2. Water was added to the containers to over flowing and the container was sealed. • 3. The containers were stored at room temperature.
4. After two days the containers were opened and the leachate was analyzed for active quaternary compound (QAC) using a Hach DR/2400 Spectrophotometer.

[3] = test system: EN[…]; settings: ATCC # 13048; lowest concentration which inhibits growth in all replicates
[4] = test system: ESCHERICHIA; settings: ATCC # 11229; lowest concentration which inhibits growth in all replicates
[5] = test system: LISTERIA MONOCYTOGENES; settings: ATCC # 35152; lowest concentration which inhibits growth in all replicates
[6] = test system: PSEUDOMONAS AERUGINOSA; settings: ATCC # 15442; lowest concentration which inhibits growth in all replicates
[7] = test system: SERRATIA MARCESANS; settings: ATCC # 13880; lowest concentration which inhibits growth in all replicates
[8] = test system: ST[…]; settings: ATCC # 6538; lowest concentration which inhibits growth in all replicates
[9] = test system: METHICILLIAN-RESISTANT STAPHYLOCOCCUS AUREUS; settings: ATCC # 33593; lowest concentration which inhibits growth in all replicates
[10] = test system: AS[…]; settings: ATCC # 16424; lowest concentration which inhibits growth in all replicates
[11] = test system: CANDIDA ALBICANS; settings: ATCC # 10231; lowest concentration which inhibits growth in all replicates
[12] = test system: PSEUDOMONAS AERUGINOSA; settings: ATCC # 15442; ten-minute contact time
[13] = test system: SALMONELLA CHOLERAESUIS; settings: ATCC # 10708; ten-minute contact time
[14] = test system: STAPHYLOCOCCUS AUREUS; settings: ATCC # 6538; ten-minute contact time

Substance | leaching of quaternary ammonium compound relative to the ADBAS compound ([1]; Example 2, ratio of averages) [times] | AVERAGE active quaternary compound in leachate, FINAL DATE May 8, 2004 ([1]; average of three blocks, water, room temperature, after two days) [PPM QAC] | leaching relative to the ADBAS compound ([2]; Example 4, ratio of averages) [times] | AVERAGE active quaternary compound in leachate, FINAL DATE Sep. 5, 2004 ([2]; average of three blocks, water, room temperature, start Sep. 1, 2004) [PPM QAC] | Minimum Inhibitory Concentration (MIC) CONCENTRATION [3] [PPM] | Minimum Inhibitory Concentration (MIC) CONCENTRATION [4] [PPM] | Minimum Inhibitory Concentration (MIC) CONCENTRATION [5] [PPM] | Minimum Inhibitory Concentration (MIC) CONCENTRATION [6] [PPM] | Minimum Inhibitory Concentration (MIC) CONCENTRATION [7] [PPM] | Minimum Inhibitory Concentration (MIC) CONCENTRATION [8] [PPM] | Minimum Inhibitory Concentration (MIC) CONCENTRATION [9] [PPM] | Minimum Inhibitory Concentration (MIC) CONCENTRATION [10] [PPM] | Minimum Inhibitory Concentration (MIC) CONCENTRATION [11] [PPM] | AOAC USE-DILUTION VALUES CONCENTRATION [12] [PPM] | AOAC USE-DILUTION VALUES CONCENTRATION [13] [PPM] | AOAC USE-DILUTION VALUES CONCENTRATION [14] [PPM]
alkyl dimethyl benzyl ammonium chloride [ADBAC] | 3.25 | 45.24 | 8.1 | 480.0 |  |  |  |  |  |  |  |  |  |  |  | 
alkyl dimethyl benzyl ammonium saccharinate [ADBAS] |  |  |  |  | 10 | 10 | 1 | 100 | 10 | 1 | 0.5 | 10 | 100 | 700 | 600 | 600
